Laboratory results as given in patent US6093729A, “Substituted bicyclic heteroaroylguanidines, a process for their preparation, their use as a medicament or a diagnostic agent, and a medicament containing them” (priority 1994, dated 2000).
Structures can show the parent of a compound that is named as a salt.

Legend:
[1] = target: T1, Na^+ /H^+ exchanger of rabbit erythrocytes (Oryctolagus cuniculus, UniProt P23791); assay: Inhibition of the Na^+ /H^+ exchanger of rabbit erythrocytes (amiloride-sensitive sodium influx, flame photometry); format: cell-based, rabbit (New Zealand White); details: pH 7.4, 37° C.
T1 construct: determine the Na^+ influx into the erythrocytes; endogenous in cells; host or cells: erythrocytes of cholesterol-fed New Zealand White rabbits (Ivanovas)
T1 sequence (P23791 whole entry): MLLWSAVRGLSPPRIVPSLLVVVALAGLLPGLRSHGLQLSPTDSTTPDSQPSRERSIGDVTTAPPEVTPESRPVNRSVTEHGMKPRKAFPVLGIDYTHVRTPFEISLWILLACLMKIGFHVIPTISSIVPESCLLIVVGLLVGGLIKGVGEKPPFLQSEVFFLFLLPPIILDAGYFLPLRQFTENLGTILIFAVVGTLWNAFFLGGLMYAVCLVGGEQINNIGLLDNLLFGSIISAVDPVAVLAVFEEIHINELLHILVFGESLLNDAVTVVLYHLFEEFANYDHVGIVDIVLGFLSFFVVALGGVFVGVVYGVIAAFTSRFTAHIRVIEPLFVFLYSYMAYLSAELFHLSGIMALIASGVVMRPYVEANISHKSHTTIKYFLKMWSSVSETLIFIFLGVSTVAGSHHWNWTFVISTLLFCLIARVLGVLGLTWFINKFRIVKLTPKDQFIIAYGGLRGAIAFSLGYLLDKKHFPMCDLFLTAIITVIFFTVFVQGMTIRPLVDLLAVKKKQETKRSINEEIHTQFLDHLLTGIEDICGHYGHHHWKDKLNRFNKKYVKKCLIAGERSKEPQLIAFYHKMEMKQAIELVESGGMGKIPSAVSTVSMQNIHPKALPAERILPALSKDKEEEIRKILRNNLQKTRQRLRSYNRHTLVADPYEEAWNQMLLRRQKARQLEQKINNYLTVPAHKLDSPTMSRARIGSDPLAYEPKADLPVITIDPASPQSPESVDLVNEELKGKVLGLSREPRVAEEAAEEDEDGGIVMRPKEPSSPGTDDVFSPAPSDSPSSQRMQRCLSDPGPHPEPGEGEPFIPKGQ
Source text: Inhibition of the Na^+ /H^+ exchanger of rabbit erythrocytes:
New Zealand White rabbits (Ivanovas) were given a standard diet containing 2% cholesterol for six weeks in order to activate Na^+ /H^+ exchange and thus to be able to use flame photometry to determine the Na^+ influx into the erythrocytes via […]. The blood was removed from the aural arteries and rendered incoagulable by the addition of 25 IU of potassium heparin. One part of each sample was used for the duplicate determination of the hematocrit by centrifugation. Aliquots of in each case 100 μl were employed for measuring the initial content of Na^+ in the erythrocytes.
In order to determine the amiloride-sensitive sodium influx, 100 μl of each blood sample were in each case incubated, at pH 7.4 and 37° C., in 5 ml of a hyperosmolar salt/sucrose medium ([…]: 140 NaCl, 3 KCl, 150 sucrose, 0.1 ouabain, 20 tris(hydroxymethyl)aminomethane). The erythrocytes were then washed three times with ice cold MgCl2 /ouabain solution ([…]: 112 MgCl2, 0.1 ouabain) and hemolyzed in 2.0 ml of distilled water. The intracellular content of sodium was determined by flame photometry.
The nett influx of Na^+ was calculated from the difference between the initial sodium values and the sodium content of the erythrocytes following incubation. The amilorideinhibitable sodium influx was given by the difference in the sodium content of the erythrocytes following incubation with and without 3×10-4 mol/l amiloride. The same procedure was also used in the case of the compounds according to the invention.

[2] = cited from earlier work
[3] = system: rat hearts; details: isolated rat hearts, cited from earlier work

| SMILES | IC50 [1] | also measured |
| --- | --- | --- |
| NC(N)=NC(=O)c1ccc2ccccc2n1 [Example 1, Quinoline-2-carboguanidide Dihydrochloride] | 2 to 3 µM | – |
| NC(N)=NC(=O)c1cnc2ccccc2c1 [Example 2, Quinoline-3-carboguanidide Dihydrochloride] | 1.2 µM | – |
| NC(N)=NC(=O)c1ccc2ncccc2c1 [Example 3, Quinolin-6-carboguanidide] | 3 to 5 µM | – |
| NC(N)=NC(=O)c1ccc2cnccc2c1 [Example 4, Isoquinoline-6-carboguanidide] | 10 µM | – |
| Cc1nc2ccc(Cl)cc2cc1C(=O)N=C(N)N [Example 8, 6-Chloro-2-methylquinoline-3-carboguanidide hydrochloride] | < 1 µM | – |
| NC(N)=NC(=O)c1nc(Cl)c(N)nc1N [amiloride] | – | antiarrhythmic effect ([2]; Circulation 79, 1257-63 (1989)): only weakly expressed; accompanying effects undesirable when treating cardiac arrhythmias ([2]; side effects): hypotensive and saluretic effects; suppression of artificially induced ventricular fibrillation ([3]; Eur. Heart J. 9 (suppl. 1): 167 (1988)): completely suppress artificially induced ventricular fibrillation |
| CCN(c1nc(N)c(C(=O)N=C(N)N)nc1Cl)C(C)C [ethylisopropyl amiloride, Ethylisopropylamiloride] | – | potency relative to amiloride against artificially induced ventricular fibrillation ([3]; compared with amiloride): even more potent than amiloride |
